From patent publication US20240124396A1, “AMINO LIPID COMPOUND, PREPARATION METHOD THEREFOR, AND USE THEREOF” (SHENZHEN SHENXIN BIOTECHNOLOGY CO., LTD., priority 2021, published 2024) come the findings set out here.

In experiment [1] the test system is Luciferase mRNA (Fluc mRNA). Briefly: Luciferase mRNA in vivo delivery performance of lipid nanoparticles prepared from amino lipid compounds. On the set-up: species or system BALB/c mice. As to conditions: LNP with Fluc mRNA, 0.5 mg/kg intramuscular injection, mice, total fluorescence intensity imaged 6 hours after dosing. How it is done:
Evaluation of Luciferase mRNA In Vivo Delivery Performance of Lipid Nanoparticles Prepared from Amino Lipid Compounds • Preparation process: The delivery vector in the present invention, DSPC, cholesterol, and PEG2000-DMG were mixed and dissolved in absolute ethanol in a molar ratio of 50:10:38.5:1.5. Luciferase mRNA (Fluc mRNA) was dissolved in a sodium acetate solution (50 mM, pH=4.0). Two microinjection pumps were used, and the ratio of ethanol solution to sodium acetate solution (50 mM, pH=4.0) was controlled to be 1:3. A crude solution of lipid nanoparticles was prepared in a microflow channel chip, then dialyzed for 6 hours with 1×PBS (phosphate buffer solution) at a controlled temperature of 4° C. by using a dialysis cassette (Fisher, MWCO 20,000), and filtered with a 0.22 μm microporous filter membrane before use. The mass ratio of the amino lipid compound to luciferase mRNA (Fluc mRNA) was about 10:1. • Animal preparation: 6-week-old male BALB/c mice with body weights of about 20 g were selected, and fed in an SPF-grade feeding room. Animal experiments were strictly carried out according to the guidelines of the national health institution and the requirements of animal ethics. • In vivo delivery: 3 mice were randomly selected per group and injected with lipid nanoparticles at a dose of 0.5 mg/kg by intramuscular injection. After 6 hours, 200 μL of 10 mg/mL potassium […] was injected into each mouse via the tail vein, and after 10 minutes, the mice were placed under an in vivo imaging system (IVIS-200, Xenogen), and the total fluorescence intensity of each mouse was observed and recorded by photographing.
Table 1 provides the expression intensities of Fluc mRNA delivered by the intramuscular injection administration of the representative amino lipid compounds with DLin-MC3 as the control (two batches of tests in total).

Experiment [2] relates to Ovalbumin mRNA (OVA mRNA). Briefly: Ovalbumin mRNA in vivo delivery and immunization performance of lipid nanoparticles (ELISA IgG titer). As to conditions: LNP with OVA mRNA, 0.5 mg/kg subcutaneous injection Day 0 and Day 7, blood on the 21st day, FIG. 1 and FIG. 2. On the set-up: species or system BALB/c mice. How it is done:
Evaluation of Ovalbumin mRNA In Vivo Delivery and Immunization Performance of Lipid Nanoparticles (Delivery Vector) Prepared from Amino Lipid Compounds • Preparation process: The amino lipid compound described in the present invention, DSPC, cholesterol, and PEG2000-DMG were mixed and dissolved in absolute ethanol in a molar ratio of 50:10:38.5:1.5. Ovalbumin mRNA (OVA mRNA) was dissolved in a sodium acetate solution (50 mM, pH=4.0). Two microinjection pumps were used, and the ratio of ethanol solution to sodium acetate solution (50 mM, pH=4.0) was controlled to be 1:3. A crude solution of lipid nanoparticles was prepared in a microflow channel chip, then dialyzed for 6 hours with 1×PBS at a controlled temperature of 4° C. by using a dialysis cassette (Fisher, MWCO 20,000), and filtered with a 0.22 μm microporous filter membrane before use. The mass ratio of the amino lipid compound to ovalbumin mRNA (OVA mRNA) was about 10:1. • Animal preparation: 6-week-old male BALB/c mice with body weights of about 20 g were selected, and fed in an SPF-grade feeding room. Animal experiments were strictly carried out according to the guidelines of the national health institution and the requirements of animal ethics. • In vivo delivery: 3 mice were randomly selected per group and injected with lipid nanoparticles at a dose of 0.5 mg/kg by subcutaneous injection (Day 0). After 7 days, the same amount was used for another boost (Day 7). Tail vein blood was taken on the 21st day for the serological analysis. DLin-MC3 was used as the control. • Enzyme-linked immunosorbent assay (ELISA): a flat-bottomed 96-well plate (Nunc) was pre-coated with a concentration of OVA protein of 0.5 μg protein per well in 50 mM carbonate buffer (pH 9.6), and was allowed to stay overnight at 4° C., and then blocked with 5% glycine. Anti-serums, proteins obtained from immune animals, were diluted from 10^2 to 10^6 with PBS-0.05% Tween (PBS-T) at pH 7.4, added to the wells and incubated at room temperature, and placed at 37° C. for 1 hour. Horseradish peroxidase (HRP) coupled goat anti-mouse IgG was used for labeling in PBS-T-1% BSA at a dilution rate of 1:10,000. After the addition of the HRP substrate, the optical density was determined at a wavelength, and the absorbance at 450 nm was measured in an ELISA microplate reader (Bio-Rad).
It will be appreciated that modifications and variations are possible to those skilled in the art in light of the above teachings, and it is intended that the present invention cover all such modifications and variations as fall within the scope of the appended claims.
Background: In an ELISA, binding on a coated surface is turned into a signal by an enzyme label.

With `CCCCCCCCCCCCCCCCN1C(=O)CC[C@H](C(=O)OCCN2CCOCC2)[C@H]1CCCCCCCCCCC` (racemic) [Compound 3], the Fluorescence intensity in experiment [1] (batch 1) turned out to be 5.1E+06. Same read-out and setting: to `CCCCCCCCCCCCCCCCN1C(=O)CC[C@H](C(=O)OCCCN2CCN(C)CC2)[C@H]1CCCCCCCCC` (racemic) [Compound 4] belongs 2.8E+06. The same measure, in the same setting: then `CCCCCCCCCCCCCCC[C@@H]1[C@@H](C(=O)OCCN2CCCCC2)CCC(=O)N1CCCCCCCCCCCCC` (racemic) [Compound 6], with 3.1E+05. For `CCCCCCCCCCCCCCCCC[C@@H]1[C@@H](C(=O)OCC2CCN(C)CC2)CCC(=O)N1CCCCCCCCCCCC` (racemic) [Compound 7], in experiment [1] (batch 1), the Fluorescence intensity was determined as 6.1E+05. `CCCCCCCCCCCCCCCCN1C(=O)C[C@H](C(=O)NCCN2CCCCC2)[C@H]1CCCCCCCC` (racemic) [Compound 9]: in experiment [1] (batch 1), the Fluorescence intensity is 6.1E+06.

In turn, `CCCCCCCCCCCCCCCCC[C@@H]1[C@@H](C(=O)NCCN2CCN(C)CC2)CC(=O)N1CCCCCC` (racemic) [Compound 10] had a Fluorescence intensity in experiment [1] (batch 1) of 8.1E+05. In the case of `CCCCCCCC/C=C\CCCCCCCCN1C(=O)C[C@H](C(=O)NCCCN(C)C)[C@H]1CCCCCCCCCCC` (racemic) [Compound 11], in experiment [1] (batch 1), the Fluorescence intensity is given as 2.1E+06.

As for `CCCCCCCC/C=C\CCCCCCC[C@@H]1[C@@H](C(=O)OCCN2CCCC2)CC(=O)N1CCCCCCCCCCCCCCCC` (racemic) [Compound 15], the Fluorescence intensity in experiment [1] (batch 1) stood at 2.8E+07.

With `CCCCCCCC/C=C\CCCCCCC[C@@H]1[C@@H](C(=O)OCCN2CCCCC2)CC(=O)N1CCCCCCCCCCCC` (racemic) [Compound 16], in experiment [1] (batch 1), the Fluorescence intensity amounted to 1.4E+07.

`CCCCC/C=C\C/C=C\CCCCCCC[C@@H]1[C@@H](C(=O)OCCCN(C)C)CC(=O)N1CCCCCCCCCCCCC` (racemic) [Compound 19] registered a Fluorescence intensity in experiment [1] (batch 1) of 2.1E+06. Consider `CCCCC/C=C\C/C=C\CCCCCCC[C@@H]1[C@@H](C(=O)OCCN2CCCC2)CC(=O)N1CCCCCCCCCCCCCCCC` (racemic) [Compound 20], for which the Fluorescence intensity in experiment [1] (batch 1) was 5.2E+06. For `CCCCCCCCCCCCN1C(=O)C[C@H](C(=O)NCCN(C)C)[C@H]1CCCCCCCCCCC` (racemic) [Compound N12A12C4D1], the Fluorescence intensity in experiment [1] (batch 1) was 2.9E+07. Further, the “IgG antibody titers compared with the DLin-MC3 control group” value in experiment [2] was “significantly superior”. For `CCCCCCCCCCCCN1C(=O)C[C@H](C(=O)OCCCN(C)C)[C@H]1CCCCCCCCCCC` (racemic) [Compound N12A12C4O2], in experiment [1] (batch 1), the Fluorescence intensity came to 2.8E+06. The “IgG antibody titers compared with the DLin-MC3 control group” value in experiment [2] is reported as “comparable”. Regarding `CCCCC/C=C\C/C=C\CCCCCCC[C@@H]1[C@@H](C(=O)OCCN2CCCCC2)CC(=O)N1CCCCCCCCCCCC` (racemic) [Compound N12A20C4O10], in experiment [1] (batch 1), the Fluorescence intensity was 2.7E+06. The “IgG antibody titers compared with the DLin-MC3 control group” value in experiment [2] is given as “significantly superior”. Molecule `CCCCCCCCCCCCCCCCN1C(=O)CC[C@H](C(=O)OCCN2CCCCC2)[C@H]1CCCCCCCCC` (racemic) [Compound N16A10C5O10] showed a Fluorescence intensity in experiment [1] (batch 1) of 4.5E+06. Further, the “IgG antibody titers compared with the DLin-MC3 control group” value in experiment [2] was “significantly superior”. Turning to `CCCCCCCC/C=C\CCCCCCCCN1C(=O)C[C@H](C(=O)OCCN2CCCCC2)[C@H]1CCCCCCCCC` (racemic) [Lipid 1], the Fluorescence intensity in experiment [1] (batch 2) turned out to be 8.8E+06. In experiment [1] (batch 2), `CCCCCCCC/C=C\CCCCCCCCN1C(=O)C[C@H](C(=O)OCCCN(C)C)[C@H]1CCCCCCCCCCCCCC` (racemic) [Lipid 2] gave a Fluorescence intensity of 4.9E+06. Take `CCCCCCCC/C=C\CCCCCCCCN1C(=O)C[C@H](C(=O)OCCN2CCCC2)[C@H]1CCCCCCCCCCCCCCCCC` (racemic) [Lipid 3]: the Fluorescence intensity in experiment [1] (batch 2) stood at 2.9E+07. As to `CCCCC/C=C\C/C=C\CCCCCCCCN1C(=O)C[C@H](C(=O)OCCN2CCCC2)[C@H]1CCCCCCCCCCCCCC` (racemic) [Lipid 5], the Fluorescence intensity in experiment [1] (batch 2) is 7.6E+06. `CCCCC/C=C\C/C=C\CCCCCCCCN1C(=O)C[C@H](C(=O)OCCCN2CCN(C)CC2)[C@H]1CCCCCCCCCCCC` (racemic) [Lipid 6] had a Fluorescence intensity in experiment [1] (batch 2) of 3.7E+06. In turn, `CCCCCCCC/C=C\CCCCCCC[C@@H]1[C@@H](C(=O)OCCN2CCCC2)CC(=O)N1CCCCCCCCCCCCCCCC` (racemic) [Lipid 7] showed a Fluorescence intensity in experiment [1] (batch 2) of 4.8E+07. Still for that read-out and setting: to `CCCCCCCC/C=C\CCCCCCC[C@@H]1[C@@H](C(=O)OCCN2CCCCC2)CC(=O)N1CCCCCCCCCCCC` (racemic) [Lipid 8] belongs 2.3E+07; to `CCCCC/C=C\C/C=C\CCCCCCCC[C@@H]1[C@@H](C(=O)OCCN2CCCCC2)CC(=O)N1CCCCCCCCCCCC` (racemic) [Lipid 9], 4.2E+06. In turn, `CCCCC/C=C\C/C=C\CCCCCCCC[C@@H]1[C@@H](C(=O)OCC2CCN(C)CC2)CC(=O)N1CCCCCCCCCCCCC` (racemic) [Lipid 10] showed a Fluorescence intensity in experiment [1] (batch 2) of 3.6E+06.

Take `CCCCC/C=C\C/C=C\CCCCCCCCC(CCCCCCCC/C=C\C/C=C\CCCCC)OC(=O)CCCN(C)C` [Dlin-MC3, reference compound]: the Fluorescence intensity came out at 7.7E+06 in experiment [1] (batch 1) and 6.9E+06 in experiment [1] (batch 2).
